Patent publication US20240327415A1, “Multicomponent Complexes, Including Salts, Crystalline Forms, and Hydrates and Solvates of ENT1 Inhibitors” (iTeos Belgium SA, priority 2023, published 2024)
Where a name gives a salt, the structure may show the parent alone. One block for each compound: values may come before it.

Key:
Format in all cases: physicochemical
[1] = particle size distribution (Mastersizer 2000)
Procedure: In Example 5, the particle size distribution of solids was measured using a Mastersizer 2000 instrument and the method is detailed below.

[2] = thermodynamic solubility in 8 aqueous media (Example 19); details: for solubility in aqueous media: 24 hours at 37° C.
Procedure: UPLC System—UPLC: ThermoFisher Vanquish, Detector 1: UV detector set at 266 nm
UPLC Conditions— • Auto sampler temp.: RT • Column: Agilent Eclipse Plus C18 HD (50×2.1 mm; 1.8 μm) • Column temp: 40° C. • Gradient: Mobile phase A: 10 mM ammonium acetate in water • Mobile phase B: Acetonitrile • Flow: 0.6 mL/min • Gradient:
• Concentration: ca. 1.0 mg/mL • Solvent: ACN/water 50:50 • Injection volume: 1 μl • Retention time: 2.9 min
Example 19-Solubility of Crystalline Form 2 Compound 1 di(hydrogen sulfate) trihydrate: The thermodynamic solubility of crystalline Form 2 Compound 1 di(hydrogen sulfate) trihydrate was determined in 8 aqueous media (0.1M HCl, Phthalate buffer pH 3, acetate buffer pH 4.2, phosphate buffer pH 7, phosphate buffer pH 7.4, alkaline borate buffer pH 9.0, purified water EP/USP and phosphate water pH 12). Buffer solutions were prepared according to the United States Pharmacopeia USP 43 with modified buffer strength. Suspensions were prepared by addition of a single aliquot of the aqueous medium to the crystalline Form 2 Compound 1 di(hydrogen sulfate) trihydrate. The pH was titrated to the targeted pH with 1M NaOH. After incubation for 24 hours at 37° C., the pH was measured, and the mother liquors were filtered and analyzed by UPLC to determine the concentration of the free base. The residual solids after the solubility determination were ambient- and vacuum dried and analyzed by HT-XRPD.

[3] = Variable Temperature X-Ray Powder Diffraction (VT-XRPD); design: key: Crystalline Form 2 di(hydrogen sulfate) trihydrate; Crystalline Form 5 di(hydrogen sulfate); PC: Poorly Crystalline; details: second Heating, hold 30 min
Procedure: (§1) In the examples below, VT-XRPD analysis was carried out on a Philips X'Pert Pro Multipurpose diffractometer equipped with a temperature chamber. The samples were scanned between 4 and 36° 2θ using Cu K radiation (α1 λ=1.54060 Å; α2=1.54443 Å; β=1.39225 Å; α1: α2 ratio=0.5; most, if not all, B radiation is removed from the beam using an X-ray mirror) running in Bragg-Brentano geometry (step size 0.008° 2θ) using 40 kV/40 mA generator settings. Measurements were carried out from ambient temperature to an upper limit of 250° C., with a final measurement taken after cooling.
as §1, with “VT-XRPD” for “In the examples below, VT-XRPD”, “Å; β2=1.39225” for “Å; β=1.39225”, “Å; α1:α2” for “Å; α1: α2”, “all, β” for “all, B”

[4] = solution stability in 1-propanol:water (80:20% v/v) at 50° C. (Example 8)
Procedure: Example 8-Solution Stability of Compound 1 di(hydrogen sulfate): As per Table 44, weighed amounts (mg) of Compound 1 (free base) were added to 5×1.5 mL screw cap vials. Sulfuric acid equivalents were added to each vial as solutions in volumes of 1-propanol: water (80:20% v/v) as further set forth in Table 44. Salt formation occurred in situ. The target free base concentration was about 186 mg/mL. The solutions were stirred at 50° C. for about 24 hours. […] Subsamples (50 μL) of the solutions were extracted for HPLC analysis after 2, 4, 6, and 23 hours of stirring at 50° C.

[5] = After complete equilibration, 3 days post-drying (moisture content = 6.07%)
[6] = Before complete equilibration, 24 hr post-drying (moisture content = 4.33%)
[7] = 1-propanol:water (80:20% v/v), 50° C., Acid Equiv. 1.90
[8] = 1-propanol:water (80:20% v/v), 50° C., Acid Equiv. 1.95
[9] = 1-propanol:water (80:20% v/v), 50° C., Acid Equiv. 2.00
[10] = 1-propanol:water (80:20% v/v), 50° C., Acid Equiv. 2.05
[11] = 1-propanol:water (80:20% v/v), 50° C., Acid Equiv. 2.10

D10 [1, 5]: 6.32 μm
D50 [1, 5]: 32.90 μm
D90 [1, 5]: 84.73 μm
D10 [1, 6]: 17.596 μm
D50 [1, 6]: 46.785 μm
D90 [1, 6]: 109.799 μm
solubility compared with the free base [2]: more soluble than the free base
solubility in aqueous media ([2]; high pH (12.0)): very slightly soluble
solubility in aqueous media ([2]; low pH values (<3.0)): freely soluble
solubility in aqueous media ([2]; pH 4.2): soluble
solubility in aqueous media ([2]; pH 7.0): slightly soluble
VT-XRPD Results ([3]; 120° C.): 5
VT-XRPD Results ([3]; 130° C.): 5
SMILES: CCCN1CCNCCCNC(=O)c2cc(OC)c(OC)c(c2)OCCC[C@@H](OC(=O)c2cc(OC)c(OC)c(OC)c2)CC1

SMILES: COc1cc(C(=O)O[C@@H]2CCCOc3cc(cc(OC)c3OC)C(=O)NCCCN3CCCN(CC2)CC3)cc(OC)c1OC [Compound 1 di(hydrogen sulfate)]
lowering of purity at the T23h timepoint versus earlier samples ([4]; 1-propanol:water (80:20% v/v), 50° C.): about 0.8 % area
solution purity ([4]; 1-propanol:water (80:20% v/v), 50° C., 2, 4, 6 and 23 hours): 98.7-99.7 % area
HPLC Conc. T2 h [4, 7]: 176 mg/mL
HPLC Conc. T4 h [4, 7]: 167 mg/mL
HPLC Conc. T6 h [4, 7]: 183 mg/mL
HPLC Conc. T23 h [4, 7]: 164 mg/mL
HPLC Purity T2 h [4, 7]: 99.70 % area
HPLC Purity T4 h [4, 7]: 99.67 % area
HPLC Purity T6 h [4, 7]: 99.58 % area
HPLC Purity T23 h [4, 7]: 98.94 % area
HPLC Conc. T2 h [4, 8]: 175 mg/mL
HPLC Conc. T4 h [4, 8]: 169 mg/mL
HPLC Conc. T6 h [4, 8]: 179 mg/mL
HPLC Conc. T23 h [4, 8]: 162 mg/mL
HPLC Purity T2 h [4, 8]: 99.60 % area
HPLC Purity T4 h [4, 8]: 99.61 % area
HPLC Purity T6 h [4, 8]: 99.53 % area
HPLC Purity T23 h [4, 8]: 99.00 % area
HPLC Conc. T2 h [4, 9]: 170 mg/mL
HPLC Conc. T4 h [4, 9]: 165 mg/mL
HPLC Conc. T6 h [4, 9]: 169 mg/mL
HPLC Conc. T23 h [4, 9]: 170 mg/mL
HPLC Purity T2 h [4, 9]: 99.66 % area
HPLC Purity T4 h [4, 9]: 99.58 % area
HPLC Purity T6 h [4, 9]: 99.43 % area
HPLC Purity T23 h [4, 9]: 98.78 % area
HPLC Conc. T2 h [4, 10]: 166 mg/mL
HPLC Conc. T4 h [4, 10]: 165 mg/mL
HPLC Conc. T6 h [4, 10]: 173 mg/mL
HPLC Conc. T23 h [4, 10]: 165 mg/mL
HPLC Purity T2 h [4, 10]: 99.68 % area
HPLC Purity T4 h [4, 10]: 99.52 % area
HPLC Purity T6 h [4, 10]: 99.42 % area
HPLC Purity T23 h [4, 10]: 98.85 % area
HPLC Conc. T2 h [4, 11]: 166 mg/mL
HPLC Conc. T4 h [4, 11]: 164 mg/mL
HPLC Conc. T6 h [4, 11]: 168 mg/mL
HPLC Conc. T23 h [4, 11]: 167 mg/mL
HPLC Purity T2 h [4, 11]: 99.60 % area
HPLC Purity T4 h [4, 11]: 99.62 % area
HPLC Purity T6 h [4, 11]: 99.47 % area
HPLC Purity T23 h [4, 11]: 98.89 % area
overall solution stability ([4]; 1-propanol:water solvent system at 50° C.): substantial stability
concentration of the solutions by HPLC ([4]; input free base concentration 186 mg/mL, 50° C.): 162000 to 183000 µg/mL
